Test results from ChEMBL document CHEMBL4400561, “Isolation, structural elucidation, and insights into the anti-inflammatory effects of triterpene saponins from the leaves of Stauntonia hexaphylla” (Bioorg Med Chem Lett, 2019).

What was measured:
RAW264.7 [1] = test: Cytotoxicity against mouse RAW264.7 cells at anti-inflammatory IC50 after 19 hrs by MTT assay; format: cell-based; settings: raw264.7, 19 h
RAW264.7 [2] = test: Anti-inflammatory activity in mouse RAW264.7 cells assessed as inhibition of LPS-induced NO production preincubated for 1 hr followed by LPS-stimulation and measured after 18 hrs by Griess reagent-based assay; format: functional, cell-based
RAW264.7 [3] = test: Anti-inflammatory activity in mouse LPS-stimulated RAW264.7 cells assessed as decrease in COX2 protein levels preincubated for 1 hr followed by LPS-stimulation and measured after 16 hrs by Western blot analysis; format: functional, cell-based
RAW264.7 [4] = test: Anti-inflammatory activity in mouse LPS-stimulated RAW264.7 cells assessed as decrease in IL1beta levels preincubated for 1 hr followed by LPS-stimulation and measured after 12 hrs by ELISA; format: functional, cell-based
RAW264.7 [5] = test: Anti-inflammatory activity in mouse LPS-stimulated RAW264.7 cells assessed as decrease in PGE2 levels at preincubated for 1 hr followed by LPS-stimulation and measured after 12 hrs by ELISA; format: functional, cell-based
RAW264.7 [6] = test: Anti-inflammatory activity in mouse LPS-stimulated RAW264.7 cells assessed as decrease in TNFalpha levels preincubated for 1 hr followed by LPS-stimulation and measured after 12 hrs by ELISA; format: functional, cell-based
RAW264.7 [7] = test: Anti-inflammatory activity in mouse LPS-stimulated RAW264.7 cells assessed as decrease in iNOS protein levels preincubated for 1 hr followed by LPS-stimulation and measured after 16 hrs by Western blot analysis; format: functional, cell-based
RAW264.7 [8] = test: Anti-inflammatory activity in mouse LPS-stimulated RAW264.7 cells assessed as decrease in IL6 levels preincubated for 1 hr followed by LPS-stimulation and measured after 12 hrs by ELISA; format: functional, cell-based

SMILES | Activity (RAW264.7 [1]) | IC50 (RAW264.7 [2]) [µM] | other results
CC1(C)CC[C@]2(C(=O)O)CC[C@]3(C)C(=CC[C@@H]4[C@@]5(C)CC[C@H](O)[C@@](C)(CO[C@@H]6O[C@H](CO[C@@H]7O[C@H](CO)[C@@H](O)[C@H](O)[C@H]7O)[C@@H](O)[C@H](O)[C@H]6O)[C@@H]5CC[C@]43C)[C@@H]2C1 | Non-Toxic | > 50 | –
CC1(C)CC[C@]2(C(=O)O[C@@H]3O[C@H](CO[C@@H]4O[C@H](CO)[C@@H](O)[C@H](O)[C@H]4O)[C@@H](O)[C@H](O)[C@H]3O)CC[C@]3(C)C(=CC[C@@H]4[C@@]5(C)CC[C@H](O)C(C)(C)[C@@H]5CC[C@]43C)[C@@H]2C1 | Non-Toxic | > 50 | –
C[C@@H]1O[C@@H](O[C@H]2[C@H](O)[C@@H](O)[C@H](OC[C@H]3O[C@@H](OC(=O)[C@]45CCC(C)(C)C[C@H]4C4=CC[C@@H]6[C@@]7(C)CC[C@H](O)C(C)(C)[C@@H]7CC[C@@]6(C)[C@]4(C)CC5)[C@H](O)[C@@H](O)[C@@H]3O)O[C@@H]2CO)[C@H](O)[C@H](O)[C@H]1O [CIRENSENOSIDE O] | Non-Toxic | > 50 | –
C[C@@H]1O[C@@H](O[C@H]2[C@H](O[C@H]3CC[C@]4(C)[C@H]5CC=C6[C@@H]7CC(C)(C)CC[C@]7(C(=O)O)CC[C@@]6(C)[C@]5(C)CC[C@H]4C3(C)C)OC[C@H](O)[C@@H]2O[C@@H]2O[C@H](CO)[C@@H](O)[C@H](O)[C@H]2O)[C@H](O)[C@H](O)[C@H]1O | Non-Toxic | > 50 | –
CC1(C)CC[C@]2(C(=O)O[C@@H]3O[C@H](CO[C@@H]4O[C@H](CO)[C@@H](O)[C@H](O)[C@H]4O)[C@@H](O)[C@H](O)[C@H]3O)CC[C@]3(C)C(=CC[C@@H]4[C@@]5(C)CC[C@H](O[C@@H]6OC[C@H](O)[C@H](O)[C@H]6O)[C@@](C)(CO)[C@@H]5CC[C@]43C)[C@@H]2C1 | Non-Toxic | > 50 | –
CC1(C)CC[C@]2(C(=O)O[C@@H]3O[C@H](CO[C@@H]4O[C@H](CO)[C@@H](O)[C@H](O)[C@H]4O)[C@@H](O)[C@H](O)[C@H]3O)CC[C@]3(C)C(=CC[C@@H]4[C@@]5(C)CC[C@H](O[C@@H]6OC[C@H](O)[C@H](O[C@@H]7O[C@H](CO)[C@@H](O)[C@H](O)[C@H]7O)[C@H]6O)C(C)(C)[C@@H]5CC[C@]43C)[C@@H]2C1 | Non-Toxic | > 50 | –
C=C1CC[C@]2(C(=O)O[C@@H]3O[C@H](CO[C@@H]4O[C@H](CO)[C@@H](O[C@@H]5O[C@@H](C)[C@H](O)[C@@H](O)[C@H]5O)[C@H](O)[C@H]4O)[C@@H](O)[C@H](O)[C@H]3O)CC[C@]3(C)C(=CC[C@@H]4[C@@]5(C)CC[C@H](O)C(C)(C)[C@@H]5CC[C@]43C)[C@@H]2C1 | Non-Toxic | > 50 | –
C[C@@H]1O[C@@H](O[C@H]2[C@H](O)[C@@H](O)[C@H](OC[C@H]3O[C@@H](OC(=O)[C@]45CCC(C)(C)C[C@H]4C4=CC[C@@H]6[C@@]7(C)CC[C@H](O)[C@@](C)(CO)[C@@H]7CC[C@@]6(C)[C@]4(C)CC5)[C@H](O)[C@@H](O)[C@@H]3O)O[C@@H]2CO)[C@H](O)[C@H](O)[C@H]1O [KIZUTA CIRENSENOSIDE O SAPONIN K3] | Non-Toxic | > 50 | –
CC1(C)CC[C@]2(C(=O)O)CC[C@]3(C)C(=CC[C@@H]4[C@@]5(C)CC[C@H](O[C@@H]6OC[C@H](O)[C@H](O)[C@H]6O[C@@H]6O[C@H](CO)[C@@H](O)[C@H](O)[C@H]6O)C(C)(C)[C@@H]5CC[C@]43C)[C@@H]2C1 | Non-Toxic | 1.82 | inhibition (RAW264.7 [3]): Dose-dependent effect; inhibition (RAW264.7 [4]): Dose-dependent effect; inhibition (RAW264.7 [5]): Dose-dependent effect; inhibition (RAW264.7 [6]): Dose-dependent effect; inhibition (RAW264.7 [7]): Dose-dependent effect; inhibition (RAW264.7 [8]): Dose-dependent effect
C=C1CC[C@]2(C(=O)O[C@@H]3O[C@H](CO[C@@H]4O[C@H](CO)[C@@H](O)[C@H](O)[C@H]4O)[C@@H](O)[C@H](O)[C@H]3O)CC[C@]3(C)C(=CC[C@@H]4[C@@]5(C)CC[C@H](O)C(C)(C)[C@@H]5CC[C@]43C)[C@@H]2C1 | Non-Toxic | > 50 | –
CC1(C)CC[C@]2(C(=O)O[C@@H]3O[C@H](CO[C@@H]4O[C@H](CO)[C@@H](O)[C@H](O)[C@H]4O)[C@@H](O)[C@H](O)[C@H]3O)CC[C@]3(C)C(=CC[C@@H]4[C@@]5(C)CC[C@H](O)[C@@](C)(CO)[C@@H]5CC[C@]43C)[C@@H]2C1 [DIPSACUSSAPONIN A] | Non-Toxic | > 50 | –
C[C@@H]1O[C@@H](O[C@H]2[C@H](O[C@H]3CC[C@@]4(C)[C@@H](CC[C@]5(C)[C@@H]4CC=C4[C@@H]6CC(C)(C)CC[C@]6(C(=O)O[C@@H]6O[C@H](CO[C@@H]7O[C@H](CO)[C@@H](O[C@@H]8O[C@@H](C)[C@H](O)[C@@H](O)[C@H]8O)[C@H](O)[C@H]7O)[C@@H](O)[C@H](O)[C@H]6O)CC[C@]45C)[C@]3(C)CO)OC[C@H](O)[C@@H]2O)[C@H](O)[C@H](O)[C@H]1O [KALOPANAXSAPONIN B] | Non-Toxic | > 50 | –
CC1(C)CC[C@]2(C(=O)O[C@@H]3O[C@H](CO[C@@H]4O[C@H](CO)[C@@H](O)[C@H](O)[C@H]4O)[C@@H](O)[C@H](O)[C@H]3O)CC[C@]3(C)C(=CC[C@@H]4[C@@]5(C)CC[C@H](O[C@@H]6OC[C@H](O)[C@H](O)[C@H]6O)C(C)(C)[C@@H]5CC[C@]43C)[C@@H]2C1 | Non-Toxic | > 50 | –
C[C@@H]1C[C@H]2[C@@H]3CCC4=CC(=O)C=C[C@]4(C)[C@@]3(F)[C@@H](O)C[C@]2(C)[C@@]1(O)C(=O)CO [DEXAMETHASONE] | Non-Toxic | 0.13 | –
CC1(C)CC[C@]2(C(=O)O[C@@H]3O[C@H](CO)[C@@H](O)[C@H](O)[C@H]3O)CC[C@]3(C)C(=CC[C@@H]4[C@@]5(C)CC[C@H](O)C(C)(C)[C@@H]5CC[C@]43C)[C@@H]2C1 | Non-Toxic | > 50 | –
CC1(C)CC[C@]2(C(=O)O)CC[C@]3(C)C(=CC[C@@H]4[C@@]5(C)CC[C@H](O)[C@@](C)(CO[C@@H]6O[C@H](CO)[C@@H](O)[C@H](O)[C@H]6O)[C@@H]5CC[C@]43C)[C@@H]2C1 | Non-Toxic | > 50 | –
C=C1CC[C@]2(C(=O)O)CC[C@]3(C)C(=CC[C@@H]4[C@@]5(C)CC[C@H](O[C@@H]6OC[C@H](O)[C@H](O)[C@H]6O[C@@H]6O[C@H](CO)[C@@H](O)[C@H](O)[C@H]6O)C(C)(C)[C@@H]5CC[C@]43C)[C@@H]2C1 | Non-Toxic | 16.6 | –
CC1(C)CC[C@]2(C(=O)O[C@@H]3O[C@H](CO[C@@H]4O[C@H](CO)[C@@H](O)[C@H](O)[C@H]4O)[C@@H](O)[C@H](O)[C@H]3O)CC[C@]3(C)C(=CC[C@@H]4[C@@]5(C)CC[C@H](O[C@@H]6OC[C@H](O)[C@H](O)[C@H]6O[C@@H]6O[C@H](CO)[C@@H](O)[C@H](O)[C@H]6O)[C@@](C)(CO)[C@@H]5CC[C@]43C)[C@@H]2C1 | Non-Toxic | > 50 | –
C=C1CC[C@]2(C(=O)O[C@@H]3O[C@H](CO[C@@H]4O[C@H](CO)[C@@H](O)[C@H](O)[C@H]4O)[C@@H](O)[C@H](O)[C@H]3O)CC[C@]3(C)C(=CC[C@@H]4[C@@]5(C)CC[C@H](O[C@@H]6OC[C@H](O)[C@H](O)[C@H]6O[C@@H]6O[C@H](CO)[C@@H](O)[C@H](O)[C@H]6O)C(C)(C)[C@@H]5CC[C@]43C)[C@@H]2C1 | Non-Toxic | > 50 | –
CC1(C)CC[C@]2(C(=O)O[C@@H]3O[C@H](CO[C@@H]4O[C@H](CO)[C@@H](O)[C@H](O)[C@H]4O)[C@@H](O)[C@H](O)[C@H]3O)CC[C@]3(C)C(=CC[C@@H]4[C@@]5(C)CC[C@H](O[C@@H]6OC[C@H](O)[C@H](O)[C@H]6O[C@@H]6O[C@H](CO)[C@@H](O)[C@H](O)[C@H]6O)C(C)(C)[C@@H]5CC[C@]43C)[C@@H]2C1 | Non-Toxic | > 50 | –
C[C@@H]1O[C@@H](O[C@H]2[C@H](O)[C@@H](O)[C@H](OC[C@H]3O[C@@H](OC(=O)[C@]45CCC(C)(C)C[C@H]4C4=CC[C@@H]6[C@@]7(C)CC[C@H](O[C@@H]8OC[C@H](O)[C@H](O)[C@H]8O)[C@@](C)(CO)[C@@H]7CC[C@@]6(C)[C@]4(C)CC5)[C@H](O)[C@@H](O)[C@@H]3O)O[C@@H]2CO)[C@H](O)[C@H](O)[C@H]1O [CAULOSIDE D] | Non-Toxic | > 50 | –
C=C1CC[C@]2(C(=O)O[C@@H]3O[C@H](CO[C@@H]4O[C@H](CO)[C@@H](O)[C@H](O)[C@H]4O)[C@@H](O)[C@H](O)[C@H]3O)CC[C@]3(C)C(=CC[C@@H]4[C@@]5(C)CC[C@H](O)[C@@](C)(CO)[C@@H]5CC[C@]43C)[C@@H]2C1 | Non-Toxic | > 50 | –
C=C1CC[C@]2(C(=O)O[C@@H]3O[C@H](CO[C@@H]4O[C@H](CO)[C@@H](O[C@@H]5O[C@@H](C)[C@H](O)[C@@H](O)[C@H]5O)[C@H](O)[C@H]4O)[C@@H](O)[C@H](O)[C@H]3O)CC[C@]3(C)C(=CC[C@@H]4[C@@]5(C)CC[C@H](O[C@@H]6OC[C@H](O)[C@H](O)[C@H]6O)[C@@](C)(CO)[C@@H]5CC[C@]43C)[C@@H]2C1 | Non-Toxic | > 50 | –
